US7157078B2, “Devices and methods for eliminating termite colonies” (The University of Florida Research Foundation, Inc., priority 2001, dated 2007)

Assays:
[1] = test system: termites from the genus/specie Reticulitermes flavipes or Coptotermes formosanus; experiment: Termiticide activity (Reference Example 3); assay type: in vivo; conditions: 20 termites per well; for termite death (printed in DTD50 column): 0.5% compound on filter paper; for DTD50 (number of days until 50% death): 0.5% compound on Whatman #1 filter paper, triplicate
Procedure: The tests, run in triplicate, are set up in three wells of a 6-well polystyrene microtiter plate (3 wells are empty). Four circles of either 3.2 cm Whatman #1 filter paper (cellulose) for the food controls and tests on compounds, or 3.2 cm Whatman GF/C glass microfibre filters (borosilicate glass) for the no-food controls are stacked in each well. For the food controls, 600 microliters of water are added to each wen. For the no-food controls 1200 microliters of water are added to those wells. If the test compounds are water soluble, they are added to the wells in 600 microliters of water to deliver 0.5% compound. Water insoluble test compounds are added to the wells in a solvent in which they are soluble to deliver 0.5% compound, the solvent is evaporated, and 600 microliters of water added per well.
Termiticidal activity for a compound is measured using termites from the genus/specie Reticulitermes flavipes or Coptotermes formosanus. The termites are added in groups of 20 per well. Every 34 days the termites are counted. The number of days until 50% death (DTD50) and 100% death for termites is determined. These values for termites in the wells containing test compounds are compared to the food and no-food controls to determine which compounds display termiticidal activity.
Various compounds were analyzed by the method of Reference Example 3.

termites = experiment: Termiticide preference test (Reference Example 4); assay type: in vivo; conditions: 100 termites per dish, about 7 days
Procedure: The test is performed in 100 millimeter Petri dishes into which 20 grams of washed sand and 2 milliliters of water are distributed. Six circles (three plain and thee treated with the compound of interest) of Whatman #1 filter paper (15 millimeters) are used as food. The treated circles are prepared by pipetting a small volume (approximately 25 microliters) of a solution of the compound in an appropriate solvent onto the filter paper circles, and then evaporating the solvent.
The filter paper circles are arranged in the dish in two rows using an alternating pattern of treated and untreated. One hundred termites are then added to the dish. The test is run for about 7 days to determine if any eating preference is seen between the treated and untreated filter paper circles.

| SMILES | DTD50 (number of days until 50% death) [1] [days] | also measured |
| --- | --- | --- |
| Cc1cc(C(C)(C)c2cc(C)c(O)c(C)c2)cc(C)c1O [CAS No. 5613-46-7] |  | termite death (printed in DTD50 column) ([1]; at day 73): 42% atday 73 |
| O=S(=O)(NCCc1c[nH]cn1)c1ccccc1 [CAS No. 195052-64-3] |  | termite death (printed in DTD50 column) ([1]; by day 53): 48%by day53 |
| O=[N+]([O-])c1ccc(OC2OC(CO)C(OC3OC(CO)C(OC4OC(CO)C(O)C(O)C4O)C(O)C3O)C(O)C2F)c([N+](=O)[O-])c1 (stereo not drawn) [CAS No. 213193-76-1] | 60 |  |
| OC[C@H]1O[C@@H](Oc2ccccc2)[C@H](O)[C@@H](O)[C@@H]1O [CAS No. 1464-44-4, Phenyl-beta-D-glycoside] | 15 |  |
| COC(=O)C[S+]([O-])c1ccccc1 (stereo not drawn) [CAS No. 14090-83-6] | 35 |  |
| OCC1OC(OC2C(CO)OC(Oc3ccccc3)C(O)C2O)C(O)C(O)C1O (stereo not drawn) | 27 |  |
| Cc1nc2cc(C)c(C)cc2[nH]1 [CAS No. 3363-56-2] | 63 |  |
| CC(C)(C1CCC(O)CC1)C1CCC(O)CC1 (stereo not drawn) [CAS No. 80-04-6] | 62 | preference test result (treated vs untreated filter paper circles) (termites): passes the preference test |
| CC(C)(c1ccc(O)cc1)c1ccc(O)cc1 [CAS No. 80-05-7] | 42 |  |
| OCC1OC(O)(C(F)(F)F)C(O)C(O)C1O (stereo not drawn) | 41 |  |
| O=C(Nc1ccccc1)c1cccnc1 [CAS No. 1752-96-1] | 80 |  |
| OCC1OC(F)C(F)C(O)C1O (stereo not drawn) | 33 |  |
| COc1ccc(NC(=O)CC(C)=O)cc1 [CAS No. 5437-98-9] | 31 |  |
| CC(=O)c1ccc(-n2ccnc2)cc1 [CAS No. 10041-06-2] | 35 |  |
| CC(=O)Oc1ccc(C(C)(C)c2ccc(OC(C)=O)cc2)cc1 [CAS No. 10192-62-8] | 70 |  |
| CC(C)NCC(O)COc1cccc2ccccc12 (stereo not drawn) [CAS No. 4199-10-4] | 77 |  |
| NC1CCN(Cc2ccccc2)CC1 [CAS No. 50541-93-0] | 59 |  |
| CC1(C)CC(O)CC(C)(C)N1O [CAS No. 2226-96-2] | 32 |  |
| O=c1c2ccccc2nnn1O [CAS No. 28230-32-2] | 80 |  |
| O=[N+]([O-])c1ccc(OC2OC(CO)C(OC3OC(CO)C(O)C(O)C3O)C(O)C2F)c([N+](=O)[O-])c1 (stereo not drawn) [CAS No. 154862-23-4] | 66 |  |
